Experimental data reported in patent publication US7247643B2, “8-aza-bicyclo (3.2.1) octane derivatives and their use as monoamine neurotransmitter re-uptake inhibitors” (NeuroSearch A/S, priority 2003, dated 2007).
Counter-ions that a name gives are not always drawn.

How the values were obtained:
[1] = target: T1, DA-uptake (reuptake of dopamine in synaptosomes) (Rattus norvegicus, UniProt P23977); test: Inhibition of dopamine (DA) reuptake in synaptosomes; format: biochemical
T1 construct: In synaptosomes as described in WO 97/16451; from tissue
T1 sequence (P23977 whole entry): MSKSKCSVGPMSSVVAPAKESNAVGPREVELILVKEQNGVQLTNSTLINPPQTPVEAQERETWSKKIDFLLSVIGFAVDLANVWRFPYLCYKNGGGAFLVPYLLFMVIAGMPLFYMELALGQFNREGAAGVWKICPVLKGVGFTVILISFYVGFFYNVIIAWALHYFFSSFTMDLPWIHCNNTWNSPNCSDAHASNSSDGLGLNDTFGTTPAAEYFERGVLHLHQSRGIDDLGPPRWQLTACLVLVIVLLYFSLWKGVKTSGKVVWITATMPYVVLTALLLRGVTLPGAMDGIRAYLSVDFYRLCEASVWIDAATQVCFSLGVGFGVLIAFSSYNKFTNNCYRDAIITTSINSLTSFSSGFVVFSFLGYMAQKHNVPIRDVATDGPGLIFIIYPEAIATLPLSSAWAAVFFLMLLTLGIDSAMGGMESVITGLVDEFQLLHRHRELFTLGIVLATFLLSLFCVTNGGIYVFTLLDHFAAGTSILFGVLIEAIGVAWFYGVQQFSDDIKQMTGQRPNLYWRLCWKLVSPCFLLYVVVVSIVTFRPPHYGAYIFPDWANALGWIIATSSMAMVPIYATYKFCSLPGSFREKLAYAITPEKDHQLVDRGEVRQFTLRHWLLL
Method: (§1) A number of compounds were tested for their ability to inhibit the reuptake of the monoamine neurotransmitters dopamine (DA) noradrenaline(NA) and serotonin (5-HT) In synaptosomes as described in WO 97/16451.
(§2) The test values are given as IC50 (the concentration (μM) of the test substance which inhibits the specific binding of ^3H-DA, ^3H-NA, or ^3H-5-HT by 50%).

[2] = target: T2, NA-uptake (reuptake of noradrenaline in synaptosomes) (Rattus norvegicus, UniProt Q9WTR4); test: Inhibition of noradrenaline (NA) reuptake in synaptosomes; format: biochemical
T2 construct: In synaptosomes as described in WO 97/16451; from tissue
T2 sequence (Q9WTR4 1-597): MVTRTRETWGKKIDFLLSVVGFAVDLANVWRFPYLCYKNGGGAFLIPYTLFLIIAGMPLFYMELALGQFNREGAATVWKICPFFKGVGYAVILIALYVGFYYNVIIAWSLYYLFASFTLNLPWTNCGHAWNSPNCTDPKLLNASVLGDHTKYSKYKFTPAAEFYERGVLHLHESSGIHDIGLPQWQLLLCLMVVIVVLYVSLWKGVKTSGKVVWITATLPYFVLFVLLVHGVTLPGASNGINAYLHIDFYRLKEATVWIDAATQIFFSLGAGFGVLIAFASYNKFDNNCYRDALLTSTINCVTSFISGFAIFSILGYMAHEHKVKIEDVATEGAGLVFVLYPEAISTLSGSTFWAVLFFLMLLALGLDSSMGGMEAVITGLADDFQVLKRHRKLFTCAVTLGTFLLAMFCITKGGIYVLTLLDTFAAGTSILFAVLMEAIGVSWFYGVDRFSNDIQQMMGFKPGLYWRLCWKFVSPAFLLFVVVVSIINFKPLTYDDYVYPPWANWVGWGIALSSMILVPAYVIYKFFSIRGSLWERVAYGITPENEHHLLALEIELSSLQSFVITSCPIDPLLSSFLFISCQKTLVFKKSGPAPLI
Method: as §1, §2

[3] = target: T3, 5-HT-uptake (reuptake of serotonin in synaptosomes) (Rattus norvegicus, UniProt P31652); test: Inhibition of serotonin (5-HT) reuptake in synaptosomes; format: biochemical
T3 construct: In synaptosomes as described in WO 97/16451; from tissue
T3 sequence (P31652 whole entry): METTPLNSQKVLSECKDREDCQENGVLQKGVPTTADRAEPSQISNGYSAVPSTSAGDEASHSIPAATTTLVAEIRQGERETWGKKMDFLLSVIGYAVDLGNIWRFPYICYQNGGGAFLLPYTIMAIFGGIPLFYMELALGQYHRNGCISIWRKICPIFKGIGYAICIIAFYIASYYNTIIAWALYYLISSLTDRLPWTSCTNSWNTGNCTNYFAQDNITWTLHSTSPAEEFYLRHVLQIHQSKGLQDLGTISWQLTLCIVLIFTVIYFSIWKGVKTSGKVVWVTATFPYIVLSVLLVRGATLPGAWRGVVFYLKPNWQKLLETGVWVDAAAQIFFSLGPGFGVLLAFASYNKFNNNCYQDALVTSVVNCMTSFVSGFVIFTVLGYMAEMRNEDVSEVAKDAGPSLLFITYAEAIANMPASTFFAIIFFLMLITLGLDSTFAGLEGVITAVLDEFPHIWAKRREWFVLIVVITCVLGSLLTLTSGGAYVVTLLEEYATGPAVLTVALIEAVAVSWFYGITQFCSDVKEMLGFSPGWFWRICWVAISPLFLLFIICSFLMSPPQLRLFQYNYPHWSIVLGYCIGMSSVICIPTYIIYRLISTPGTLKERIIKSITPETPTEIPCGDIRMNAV
Method: as §1, §2

SMILES	IC50 [1] [nM]	IC50 [2] [nM]	IC50 [3] [nM]	melting point [°C]
c1csc(C2CC3CCC(N3)C2COc2cccc3ccccc23)c1 [2nd compound of method E, (2R,3S)-2-(1-Naphthyloxymethyl)-8-H-3-(2-thienyl)-8-aza-bicyclo[3.2.1]octane fumaric acid salt]	190	1.6	0.54	–
CN1C2CCC1[C@H](COc1cccc3ccccc13)[C@@H](c1cccs1)C2.O=C(O)/C=C/C(=O)O (stereo partly drawn) [2nd compound of method D, (2R,3S)-2-(1-Naphthyloxymethyl)-8-methyl-3-(2-thienyl)-8-aza-bicyclo[3.2.1]octane fumaric acid salt]	360	3.6	0.42	203.1
CN1C2CCC1[C@H](COc1cccc(Cl)c1Cl)[C@@H](c1ccco1)C2.O=C(O)/C=C/C(=O)O (stereo partly drawn) [5th compound of method D, (2R,3S)-2-(2,3-Dichlorophenoxymethyl)-8-methyl-3-(2-furanyl)-8-aza-bicyclo[3.2.1]octane fumaric acid salt]	310	0.9	0.36	156.4 to 205.9
Clc1cccc(OCC2C3CCC(CC2c2cccs2)N3)c1Cl (as salt: fumaric acid salt) [1st compound of method E, (2R,3S)-2-(2,3-Dichlorophenoxymethyl)-8-H-3-(2-thienyl)-8-aza-bicyclo[3.2.1]octane fumaric acid salt]	–	–	–	201.2
Clc1cccc(OCC2C3CCC(CC2c2cccs2)N3)c1Cl [1st compound of method E, (2R,3S)-2-(2,3-Dichlorophenoxymethyl)-8-H-3-(2-thienyl)-8-aza-bicyclo[3.2.1]octane fumaric acid salt]	74	1.8	0.74	–
CN1C2CCC1[C@H](COc1cccc3ccccc13)[C@@H](c1ccco1)C2 (stereo partly drawn) [6th compound of method D, (2R,3S)-2-(1-Naphthyloxymethyl)-8-methyl-3-(2-furanyl)-8-aza-bicyclo[3.2.1]octane fumaric acid salt]	920	3	0.53	–
c1csc(C2CC3CCC(N3)C2COc2cccc3ccccc23)c1 (as salt: fumaric acid salt) [2nd compound of method E, (2R,3S)-2-(1-Naphthyloxymethyl)-8-H-3-(2-thienyl)-8-aza-bicyclo[3.2.1]octane fumaric acid salt]	–	–	–	199.1
CN1C2CCC1[C@H](COc1cccc(Cl)c1Cl)[C@@H](c1cccs1)C2 (stereo partly drawn) [1st compound of method D, (2R,3S)-2-(2,3-Dichlorophenoxymethyl)-8-methyl-3-(2-thienyl)-8-aza-bicyclo[3.2.1]octane fumaric acid salt]	300	1.9	0.52	–
